Read-outs that look alike come from different tables or passages of the source.
Columns and labels:
[1] = system: human breast cancer cell line (MCF-7); experiment: Anticancer activity against human breast cancer cell line MCF-7; format: cell-based
[2] = system: adeno carcinomic human alveolar basal epithelial cell line (A-549); experiment: Anticancer activity against human alveolar basal epithelial cell line A-549; format: cell-based

IC50 [1]	IC50 ([1]; MCF7)	melting point	Compound	IC50 [2]	IC50 ([2]; A549)
10 nM	–	–	5-(3-Hydroxy-4-methoxyphenyl)-1,3-dimethylpyrimido[4,5-d]pyrimidine-2,4,7(1H,3H,8H)-trione [Compound 4d]	186 nM	–
–	663 nM	186 to 188 °C	O=c1nc(-c2cccc(OCc3ccccc3)c2)c2c(=O)[nH]c(=O)[nH]c2[nH]1 [Compound 4a, 5-(3-(Benzyloxy)phenyl)pyrimido[4,5-d]pyrimidine-2,4,7(1H,3H,8H)-trione]	–	518 nM
–	38 nM	142 to 144 °C	O=c1nc(-c2ccc(OCc3ccccc3)cc2)c2c(=O)[nH]c(=O)[nH]c2[nH]1 [Compound 4b, 5-(4-(Benzyloxy)phenyl)pyrimido[4,5-d]pyrimidine-2,4,7(1H,3H,8H)-trione]	–	82 nM
–	295 nM	272 to 274 °C	COc1ccc(-c2nc(=O)[nH]c3[nH]c(=O)[nH]c(=O)c23)cc1O [Compound 4c, 5-(3-Hydroxy-4-methoxyphenyl)pyrimido[4,5-d]pyrimidine-2,4,7(1H,3H,8H)-trione]	–	461 nM

Reference: US11932649B1, “5-(3-substituted phenyl)-pyrimido[4,5-d]pyrimidine-2,4,7(1H,3H,8H)-trione derivatives as anticancer agents” (KING FAISAL UNIVERISTY, priority 2023, dated 2024)
